From the NIST ThermoML archive (doi:10.1016/j.jct.2018.03.013)
Numbers after ± are expanded uncertainties.

Legend:
[1] = xn = mol fraction of the nth substance listed; conditions: 100 kPa, Liquid, x1 = 1; for speed of sound: Frequency=3 MHz, Linear variable-path acoustic interferometer; for mass density: Pycnometric method
[2] = 100 kPa, Liquid; for speed of sound: Frequency=3 MHz, Linear variable-path acoustic interferometer; for mass density: Pycnometric method

SMILES	speed of sound ([1]; 293.15 K)	mass density ([1]; 293.15 K)	speed of sound ([1]; 298.15 K)	mass density ([1]; 298.15 K)	speed of sound ([1]; 303.15 K)	mass density ([1]; 303.15 K)	speed of sound ([1]; 308.15 K)	mass density ([1]; 308.15 K)	speed of sound ([2]; 293.15 K)	mass density ([2]; 293.15 K)	speed of sound ([2]; 298.15 K)	mass density ([2]; 298.15 K)	speed of sound ([2]; 303.15 K)	mass density ([2]; 303.15 K)	speed of sound ([2]; 308.15 K)	mass density ([2]; 308.15 K)	speed of sound ([2]; 313.15 K)	mass density ([2]; 313.15 K)	speed of sound ([2]; 318.15 K)	mass density ([2]; 318.15 K)	other results
CC#N [acetonitrile] + C=C(C)C(=O)OCCCC	1304.7 ± 1.7 m/s	782.12 ± 1 kg/m3	1282.8 ± 1.6 m/s	776.82 ± 1 kg/m3	1263.9 ± 1.6 m/s	771.52 ± 1 kg/m3	1245 ± 1.6 m/s	766.21 ± 1 kg/m3													speed of sound ([1]; 313.15 K): 1226.5 ± 1.6 m/s; mass density ([1]; 313.15 K): 760.9 ± 1 kg/m3; speed of sound ([1]; 318.15 K): 1207.9 ± 1.6 m/s; mass density ([1]; 318.15 K): 755.59 ± 1 kg/m3
C=C(C)C(=O)OCC [ethyl 2-methylpropenoate]									1196.8 ± 1.6 m/s	912.3 ± 1 kg/m3	1176.9 ± 1.6 m/s	907.18 ± 1 kg/m3	1157.6 ± 1.6 m/s	902.06 ± 1 kg/m3	1139.4 ± 1.6 m/s	896.94 ± 1 kg/m3	1121.5 ± 1.6 m/s	891.83 ± 1 kg/m3	1104.6 ± 1.6 m/s	886.71 ± 1 kg/m3	
CC#N [acetonitrile] + C=C(C)C(=O)OCC	1304.7 ± 1.7 m/s	782.12 ± 1 kg/m3	1282.8 ± 1.6 m/s	776.82 ± 1 kg/m3	1263.9 ± 1.6 m/s	771.52 ± 1 kg/m3	1245 ± 1.6 m/s	766.21 ± 1 kg/m3													speed of sound ([1]; 313.15 K): 1226.5 ± 1.6 m/s; mass density ([1]; 313.15 K): 760.9 ± 1 kg/m3; speed of sound ([1]; 318.15 K): 1207.9 ± 1.6 m/s; mass density ([1]; 318.15 K): 755.59 ± 1 kg/m3
CC#N [acetonitrile]									1304.7 ± 1.7 m/s	782.12 ± 1 kg/m3	1282.8 ± 1.6 m/s	776.82 ± 1 kg/m3	1263.9 ± 1.6 m/s	771.52 ± 1 kg/m3	1245 ± 1.6 m/s	766.21 ± 1 kg/m3	1226.5 ± 1.6 m/s	760.9 ± 1 kg/m3	1207.9 ± 1.6 m/s	755.59 ± 1 kg/m3	
C=C(C)C(=O)OCCCC [butyl 2-methyl-2-propenoate]									1241.7 ± 1.7 m/s	895.19 ± 1 kg/m3	1222.1 ± 1.7 m/s	890.48 ± 1 kg/m3	1202.4 ± 1.7 m/s	885.78 ± 1 kg/m3	1183 ± 1.7 m/s	881.07 ± 1 kg/m3	1163.8 ± 1.7 m/s	876.35 ± 1 kg/m3	1145.7 ± 1.7 m/s	871.64 ± 1 kg/m3	
C=C(C)C(=O)OC [methyl methacrylate]									1200.5 ± 1.6 m/s	943.38 ± 1 kg/m3	1183.6 ± 1.6 m/s	937.64 ± 1 kg/m3	1168.5 ± 1.6 m/s	931.9 ± 1 kg/m3	1152.6 ± 1.6 m/s	926.16 ± 1 kg/m3	1135.4 ± 1.6 m/s	920.42 ± 1 kg/m3	1118.3 ± 1.6 m/s	914.67 ± 1 kg/m3	
CC#N [acetonitrile] + C=C(C)C(=O)OC	1304.7 ± 1.7 m/s	782.12 ± 1 kg/m3	1282.8 ± 1.6 m/s	776.82 ± 1 kg/m3	1263.9 ± 1.6 m/s	771.52 ± 1 kg/m3	1245 ± 1.6 m/s	766.21 ± 1 kg/m3													speed of sound ([1]; 313.15 K): 1226.5 ± 1.6 m/s; mass density ([1]; 313.15 K): 760.9 ± 1 kg/m3; speed of sound ([1]; 318.15 K): 1207.9 ± 1.6 m/s; mass density ([1]; 318.15 K): 755.59 ± 1 kg/m3
